Laboratory results published in article PMC4955735 (Anesthesiology, 2016).
Read-outs that look alike come from different tables or passages of the source.

How the values were obtained:
[1] = humans; cited from earlier work
[2] = rodents; cited from earlier work
[3] = test system: THP-1, HepG2 and HEK293 cell lines; assay: In vitro cell assays; assay type: cell-based; conditions: 0.16 mM to 2.5 mM
S.typhimurium TA 1537 = assay: Bacteria reverse mutation assay
S.typhimurium TA 98 = assay: Bacteria reverse mutation assay
rats = assay: Escalating phenylephrine infusion during continuous ketamine infusion; assay type: in vivo, rat; conditions: phenylephrine 4 to 10 μg/kg/min during steady state shallow ketamine anesthesia; n=3

SMILES: CNC1(c2ccccc2Cl)CCCCC1=O (stereo not drawn) [ketamine]
- plasma concentration at awakening [1]: 1000 ng/mL
- plasma concentration at maintenance of sedation [1]: 2000 to 3000 ng/mL
- plasma concentration at awakening [2]: 5000 ng/mL

SMILES: CC(O)COC[C@H]1O[C@@H]2O[C@H]3[C@H](O)[C@@H](O)[C@@H](O[C@H]4[C@H](O)[C@@H](O)[C@@H](O[C@H]5[C@H](O)[C@@H](O)[C@@H](O[C@H]6[C@H](O)[C@@H](O)[C@@H](O[C@H]7[C@H](O)[C@@H](O)[C@@H](O[C@H]8[C@H](O)[C@@H](O)[C@@H](O[C@H]1[C@H](O)[C@H]2O)O[C@@H]8COCC(C)O)O[C@@H]7COCC(C)O)O[C@@H]6COCC(C)O)O[C@@H]5COCC(C)O)O[C@@H]4COCC(C)O)O[C@@H]3COCC(C)O (stereo partly drawn) [HP-β-CD, hydroxypropyl-β-cyclodextrin]
- toxicity in the same cell lines compared with calabadion 2 [3]: very comparable

SMILES: COc1ccc2nc3cc(Cl)ccc3c(NCCCNCCCl)c2c1 [191-A, ICR 191 Acridine, reference compound]
- number of colonies, positive control (S.typhimurium TA 1537; TA 1537, −S9, 1 μg ICR 191 Acridine per plate): 191-A 250

SMILES: CCOC(=O)c1cncn1[C@H](C)c1ccccc1 [etomidate]
- plasma concentration at awakening [1]: 280 ng/mL
- plasma concentration at maintenance of sedation [1]: 300 to 600 ng/mL
- plasma concentration at awakening [2]: 440 ng/mL

SMILES: Nc1ccc2cc3ccccc3cc2c1 [2-AA, 2-Aminoanthracene, reference compound]
- number of colonies, positive control (S.typhimurium TA 1535; TA 1535, +S9, 10 μg 2-Aminoanthracene per plate): 2-AA 91
- number of colonies, positive control (S.typhimurium TA 100; TA 100, +S9, 10 μg 2-Aminoanthracene per plate): 2-AA 1307
- number of colonies, positive control (S.typhimurium TA 98; TA 98, +S9, 10 μg 2-Aminoanthracene per plate): 2-AA 1101
- number of colonies, positive control (S.typhimurium TA 1537; TA 1537, +S9, 10 μg 2-Aminoanthracene per plate): 2-AA 141

SMILES: CNC[C@H](O)c1cccc(O)c1 [phenylephrine]
- effect on EEG power (rats): without effects on EEG power
- effect on MAP (rats): significant MAP increases

SMILES: COc1cccc2c1C(=O)c1c(O)c3c(c(O)c1C2=O)C[C@@](O)(C(C)=O)C[C@@H]3O[C@H]1C[C@H](N)[C@H](O)[C@H](C)O1 [D-myc, Daunomycin, reference compound]
- number of colonies, positive control (S.typhimurium TA 98; TA 98, −S9, 6 μg Daunomycin per plate): D-myc 505

SMILES: CC[C@H]1OC(=O)[C@H](C)[C@@H](O[C@H]2C[C@@](C)(OC)[C@@H](O)[C@H](C)O2)[C@H](C)[C@@H](O[C@@H]2O[C@H](C)C[C@H](N(C)C)[C@H]2O)[C@](C)(O)C[C@@H](C)C(=O)[C@H](C)[C@@H](O)[C@]1(C)O [erythromycin]
- toxicity in the same cell lines compared with calabadion 2 [3]: very comparable

SMILES: [N-]=[N+]=[N-].[Na+] [SA, Sodium Azide, reference compound]
- number of colonies, positive control (S.typhimurium TA 1535; TA 1535, −S9, 1.5 μg Sodium Azide per plate): SA 446
- number of colonies, positive control (S.typhimurium TA 100; TA 100, −S9, 1.5 μg Sodium Azide per plate): SA 282
